The record followed here is patent US10829488B2, “N-(phenylsulfonyl)benzamides and related compounds as bcl-2 inhibitors” (THE REGENTS OF THE UNIVERSITY OF MICHIGAN, priority 2016, dated 2020).

SMILES strings stand for the structures. Where two headings read alike, the source gives them in different places.

Data set [1] can be described thus: Pharmacokinetics in rats. The following applies: rat, in vivo. The method, then: The pharmacokinetics of ABT-199 and representative Compounds of the Disclosure were evaluated in rats at an IV dose of 2 mg/kg and an oral dose of 20 mg/kg.
In data set [2] the test system is RS4;11 leukemia xenograft. Description: Antitumor activity in RS4;11 leukemia xenograft model. The following applies: nude mice, oral gavage, treatment started day 11, FIG. 3. The format is in vivo. The method, then: (§1) The antitumor activity of Cpd. No. 6 (compound 6) was also studied in the RS4;11 leukemia xenograft model. Human RS4;11 tumor cells were injected into nude mice and treatment started on day 11 when the tumor size reached approximately 100 mm^3. Cpd. No. 6 was administered via oral gavage at indicated doses and schedules. Cpd.

The nature of data set [3]: Mouse weight in RS4;11 leukemia xenograft model. The format is in vivo. The note with it: nude mice, oral gavage, FIG. 4. Here is the method: as §1
The mark [4] stands for this setting: IV 2 mg/kg, read-out: AUC0-∞ (ng · h/mL) IV.
[5] abbreviates: oral 20 mg/kg, read-out: AUC0-∞ (ng · h/mL) PO.

In the case of `CC1(C)CCC(CN2CCN(c3ccc(C(=O)NS(=O)(=O)c4ccc(NCC5CCOCC5)c([N+](=O)[O-])c4)c(Oc4cnc5[nH]ccc5c4)c3)CC2)=C(c2ccc(Cl)cc2)C1` [ABT-199, Venetoclax, reference compound], the AUC(0-inf) in data set [1] (setting [4]) came to 5450 ng·h/mL; in data set [1] (setting [5]), 20800 ng·h/mL.
In the case of `O=C(NS(=O)(=O)c1ccc(NC[C@H]2COCCO2)c([N+](=O)[O-])c1)c1ccc(N2CCN(CC3=C(c4ccc(Cl)cc4)CC4(CCC4)CC3)CC2)cc1Oc1cnc2[nH]ccc2c1` [Cpd. No. 6, (S)-N-((4-(((1,4-dioxan-2-yl)methyl)amino)-3-nitrophenyl)sulfonyl)-2-((1H-pyrrolo[2,3-b]pyridin-5-yl)oxy)-4-(4-((6-(4-chlorophenyl)spiro[3.5]non-6-en-7-yl)methyl)piperazin-1-yl)benzamide], the figures for the AUC(0-inf) in data set [1] (setting [4]) and in data set [1] (setting [5]) were 2920 ng·h/mL and 13500 ng·h/mL, respectively. Also, the “Antitumor activity (tumor growth)” value in data set [2] is on record as “inhibits tumor growth”. In data set [3], the Mouse weight entry is on record as “does not cause weight loss”.
With `O=C(NS(=O)(=O)c1ccc(NCC2CCOCC2)c([N+](=O)[O-])c1)c1ccc(N2CCN(CC3=C(c4ccc(Cl)cc4)CC4(CCC4)CC3)CC2)cc1Oc1cnc2[nH]ccc2c1` [Cpd. No. 3, 2-((1H-pyrrolo[2,3-b]pyridin-5-yl)oxy)-4-(4-((6-(4-chlorophenyl)spiro[3.5]non-6-en-7-yl)methyl)piperazin-1-yl)-N-((3-nitro-4-(((tetrahydro-2H-pyran-4-yl)methyl)amino)phenyl)sulfonyl)benzamide], the AUC(0-inf) in data set [1] (setting [4]) turned out to be 2680 ng·h/mL; in data set [1] (setting [5]), 7780 ng·h/mL.
